Data set [1] is described as follows: Chiral stability (racemization) of Compound 1 free base in aqueous at various pH. As to conditions: for Chiral Purity: aqueous. The format is physicochemical. An excerpt:
(§1) The rate is time and temperature sensitive (Table 1). The isolation of the crystalline bis-besylate salt of Compound 1 avoids the need for a pH swing. Also, the crystalline freebase has poor morphology which makes filtration slow, increasing the risk for racemization.

A short description of data set [2]: Solubility of Compound 1 free base in aqueous at various pH. Conditions: aqueous solution, aqueous buffer. The format is physicochemical.
From the text: as §1

Here are results for 2 compounds from US20240228475A1, “PROCESSES FOR THE PREPARATION OF (S)-2-(2,6-DIOXOPIPERIDIN-3-YL)-4-((2-FLUORO-4-((3-MORPHOLINOAZETIDIN-1-YL)METHYL)BENZYL)AMINO)ISOINDOLINE-1,3-DIONE” (Celgene Corporation, priority 2021, published 2024).

SMILES strings stand for the structures. ≈ marks a conversion by molar mass, not a printed value.

For `O=C1CC[C@H](N2C(=O)c3cccc(NCc4ccc(CN5CC(N6CCOCC6)C5)cc4F)c3C2=O)C(=O)N1.O=S(=O)(O)c1ccccc1.O=S(=O)(O)c1ccccc1` [Compound 1 bis-besylate salt, (S)-2-(2,6-dioxopiperidin-3-yl)-4-((2-fluoro-4-((3-morpholinoazetidin-1-yl)methyl)benzyl)amino)isoindoline-1,3-dione bis-besylate salt], the “Chiral stability compared to the crystalline freebase” value in data set [1] (isolated solid, compared to crystalline freebase) is reported as “more stable”.
As usually defined, the solubility is the dissolved amount per volume that the medium holds. The low end stands for little dissolved substance, the high end for much dissolved substance. Turning to `O=C1CC[C@H](N2C(=O)c3cccc(NCc4ccc(CN5CC(N6CCOCC6)C5)cc4F)c3C2=O)C(=O)N1` [Compound 1 Free Base, (S)-2-(2,6-dioxopiperidin-3-yl)-4-((2-fluoro-4-((3-morpholinoazetidin-1-yl)methyl)benzyl)amino)isoindoline-1,3-dione], in data set [2] (pH 5.3, time 3 h), the solubility at 3 h came out at 4500 µg/mL (≈ 8.4 mM). The solubility at 4 h worked out at 2400 µg/mL (≈ 4.48 mM) in data set [2] (pH 6.7, time 4 h) and 400 µg/mL (≈ 0.747 mM) in data set [2] (pH 7.6, time 4 h). Moreover, the “Chiral stability towards aqueous base” value in data set [1] (aqueous base, rate is time and temperature sensitive) was “racemization was observed”. The “Chiral Purity” value stood at 94.1% in data set [1] (pH 5.3, time 3 h); 89.1% in data set [1] (pH 6.7, time 4 h); 83.2% in data set [1] (pH 7.6, time 4 h).
